Reference: US20260001928A1 (CORTERIA PHARMACEUTICALS, priority 2022, published 2026)
*1 amine or outer side, *2 acyl side, *3 side chain or, on linkers, in order; H or OH if unused. Where a SMILES comes first, the peptide text is derived from it. Side-chain parts run from the residue outwards. [ ]: non-standard residue; d: D form. The star is where a group is joined. C18 diacid = O=C(O)CCCCCCCCCCCCCCCCC(=O)*; C16 diacid = O=C(O)CCCCCCCCCCCCCCC(=O)*; γGlu = O=C(O)[C@H](CCC(=O)[*:2])N[*:1]; C14 diacid = O=C(O)CCCCCCCCCCCCC(=O)*; NMeI = CC[C@H](C)[C@H](NC)C(=O)O; αMeL = CC(C)C[C@](C)(N)C(=O)O; AEEA = NCCOCCOCC(=O)O; Aib = CC(C)(N)C(=O)O; Propionyl = CCC(=O)*

Experiments:
human CRF2a receptor = molecular target: T1, human CRF2a receptor (Homo sapiens, UniProt Q13324); assay: Activity at human CRF2a receptor, cAMP functional assay in TeloHEAC cells; assay type: cell-based; settings: TeloHEAC cells stably expressing human CRF2a receptor, relative to urocortin 2 (100 nM = 100%)
T1 construct: expressed in transfected cells; host or cells: TeloHEAC cells
T1 sequence (Q13324 1-411): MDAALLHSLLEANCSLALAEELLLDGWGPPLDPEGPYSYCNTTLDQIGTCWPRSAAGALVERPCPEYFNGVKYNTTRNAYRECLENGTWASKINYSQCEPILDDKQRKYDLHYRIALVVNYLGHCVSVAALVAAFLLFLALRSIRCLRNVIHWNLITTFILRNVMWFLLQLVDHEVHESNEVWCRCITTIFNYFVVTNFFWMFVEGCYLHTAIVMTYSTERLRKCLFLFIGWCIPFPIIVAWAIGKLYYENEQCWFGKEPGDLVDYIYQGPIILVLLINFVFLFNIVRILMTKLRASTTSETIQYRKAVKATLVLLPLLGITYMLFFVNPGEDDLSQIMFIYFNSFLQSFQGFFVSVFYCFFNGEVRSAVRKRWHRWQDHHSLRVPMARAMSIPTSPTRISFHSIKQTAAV
How it was run: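 cAMP accumulation was measured by HTRF 665/620 nm ratio after 30 min at 37° C compound exposure (16 twofold dilutions) of CRF2a-expressing TeloHEAC cells, 10000/well, in HEPES-buffered HBSS plus IBMX. Activity was normalised to urocortin 2 at 100 nM (100%), and EC50 was the concentration giving half-maximal activation.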

CFR1R receptor = molecular target: T2, CFR1R receptor (Homo sapiens, UniProt P34998); assay: Activity at anti-target CFR1R receptor, cAMP assay in CRF1R-overexpression CHO-K1 cells; assay type: cell-based; settings: 100% = Sauvagine at 100 nM; for EC50: cAMP
T2 construct: host or cells: CHO-K1 (clone 2)
T2 sequence (P34998 24-415): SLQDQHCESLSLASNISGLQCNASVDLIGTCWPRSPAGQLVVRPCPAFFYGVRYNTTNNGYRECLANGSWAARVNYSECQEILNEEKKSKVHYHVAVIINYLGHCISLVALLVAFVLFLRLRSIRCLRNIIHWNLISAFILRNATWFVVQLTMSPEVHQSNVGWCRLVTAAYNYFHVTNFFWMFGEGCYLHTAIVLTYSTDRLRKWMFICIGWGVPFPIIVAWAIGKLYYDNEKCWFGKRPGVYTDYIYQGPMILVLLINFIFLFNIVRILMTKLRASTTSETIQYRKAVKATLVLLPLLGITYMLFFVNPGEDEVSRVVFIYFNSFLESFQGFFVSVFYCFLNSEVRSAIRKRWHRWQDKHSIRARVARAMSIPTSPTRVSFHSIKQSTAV
How it was run: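 Clone 2 cells were cultured in F12 (Hams)/10% FBS/400 μg/ml G418 at 37° C./5% CO2, frozen in medium with 10% DMSO, and thawed vials used. The protocol followed the TeloHAEC procedure, with 4000 cells/well final and Sauvagine at 100 nM defining 100% activation.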

SMILES	EC50 (human CRF2a receptor) [nM]	Emax (% I) (CFR1R receptor)	EC50 (CFR1R receptor) [nM]
CC[C@H](C)[C@H](NC(=O)[C@H](CCC(N)=O)NC(=O)C(C)(C)NC(=O)[C@H](CC(N)=O)NC(=O)[C@@H](NC(=O)[C@H](CCC(=O)O)NC(=O)[C@H](C)NC(=O)[C@H](CCC(N)=O)NC(=O)[C@H](CCC(=O)O)NC(=O)[C@H](CCCNC(=N)N)NC(=O)[C@H](CCC(N)=O)NC(=O)[C@H](CCCCN)NC(=O)[C@H](CCCCN)NC(=O)[C@H](CCC(N)=O)NC(=O)[C@H](CCCCN)NC(=O)[C@H](CCC(=O)O)NC(=O)[C@H](CCC(N)=O)NC(=O)[C@H](CCC(=O)O)NC(=O)[C@H](CC(C)C)NC(=O)[C@H](CC(C)C)NC(=O)[C@@H](NC(=O)[C@H](CCCCN)NC(=O)[C@H](CCCCNC(=O)CC[C@H](NC(=O)CCCCCCCCCCCCCCC(=O)O)C(=O)O)NC(=O)[C@](C)(CC(C)C)NC(=O)[C@H](CCCCN)NC(=O)[C@@H](NC(=O)[C@@H]1CCCN1C(=O)[C@H](NC(=O)[C@H](CC(=O)O)NC(=O)[C@H](CC(C)C)NC(=O)[C@H](CO)NC(=O)[C@H](CC(C)C)NC(=O)[C@@H](NC(C)=O)C(C)C)C(C)C)[C@@H](C)CC)[C@@H](C)CC)[C@@H](C)O)C(=O)N[C@@H](CC(C)C)C(=O)N[C@@H](C)C(=O)N[C@@H](CCC(N)=O)C(=O)N[C@H](C(N)=O)C(C)C [compound 46] (Ac-VLSLD[dV]PIK[αMeL]K([γGlu-C16 diacid])KILLEQEKQKKQREQAETN[Aib]QILAQV-NH2)	0.7	6	> 250
CC[C@H](C)[C@H](NC(C)=O)C(=O)N[C@H](C(=O)N[C@@H](CC(C)C)C(=O)N[C@@H](CO)C(=O)N[C@@H](CC(C)C)C(=O)N[C@@H](CC(=O)O)C(=O)N[C@H](C(=O)N1CCC[C@H]1C(=O)N[C@H](C(=O)N[C@@H](CCCCN)C(=O)N[C@@H](CC(C)C)C(=O)N[C@@H](CCCCNC(=O)COCCOCCNC(=O)COCCOCCNC(=O)CC[C@H](NC(=O)CCCCCCCCCCCCCCCCC(=O)O)C(=O)O)C(=O)N[C@@H](CCCCN)C(=O)N[C@H](C(=O)N[C@@H](CC(C)C)C(=O)N[C@@H](CC(C)C)C(=O)N[C@@H](CCC(=O)O)C(=O)N[C@@H](CCC(N)=O)C(=O)N[C@@H](CCC(=O)O)C(=O)N[C@@H](CCCCN)C(=O)N[C@@H](CCC(N)=O)C(=O)N[C@@H](CCCCN)C(=O)N[C@@H](CCCCN)C(=O)N[C@@H](CCC(N)=O)C(=O)N[C@@H](CCCNC(=N)N)C(=O)N[C@@H](CCC(=O)O)C(=O)N[C@@H](CCC(N)=O)C(=O)N[C@@H](C)C(=O)N[C@@H](CCC(=O)O)C(=O)N[C@H](C(=O)N[C@@H](CC(N)=O)C(=O)N[C@H](C(=O)N[C@@H](CCC(N)=O)C(=O)N[C@H](C(=O)N[C@@H](CC(C)C)C(=O)N[C@@H](C)C(=O)N[C@@H](CCC(N)=O)C(=O)N[C@H](C(N)=O)C(C)C)[C@@H](C)CC)C(C)C)[C@@H](C)O)[C@@H](C)CC)[C@@H](C)CC)C(C)C)C(C)C [compound 102] (Ac-IVLSLDVPIKLK([AEEA-AEEA-γGlu-C18 diacid])KILLEQEKQKKQREQAETNVQILAQV-NH2)	17.6	−5	> 250
CC[C@H](C)[C@H](NC)C(=O)N[C@H](C(=O)N[C@@H](CC(C)C)C(=O)N[C@@H](CO)C(=O)N[C@@H](CC(C)C)C(=O)N[C@@H](CC(=O)O)C(=O)N[C@@H](C(=O)N1CCC[C@H]1C(=O)N[C@H](C(=O)N[C@@H](CCCCN)C(=O)N[C@@H](CC(C)C)C(=O)N[C@@H](CCCCNC(=O)CC[C@H](NC(=O)CCCCCCCCCCCCC(=O)O)C(=O)O)C(=O)N[C@@H](CCCCN)C(=O)N[C@H](C(=O)N[C@@H](CC(C)C)C(=O)N[C@@H](CC(C)C)C(=O)N[C@@H](CCC(=O)O)C(=O)N[C@@H](CCC(N)=O)C(=O)N[C@@H](CCC(=O)O)C(=O)N[C@@H](CCCCN)C(=O)N[C@@H](CCC(N)=O)C(=O)N[C@@H](CCCCN)C(=O)NC(C)(C)C(=O)N[C@@H](CCC(N)=O)C(=O)N[C@@H](CCCNC(=N)N)C(=O)N[C@@H](CCC(=O)O)C(=O)N[C@@H](CCC(N)=O)C(=O)N[C@@H](C)C(=O)N[C@@H](CCC(=O)O)C(=O)N[C@H](C(=O)N[C@@H](CC(N)=O)C(=O)NC(C)(C)C(=O)N[C@@H](CCC(N)=O)C(=O)N[C@H](C(=O)N[C@@H](CC(C)C)C(=O)N[C@@H](C)C(=O)N[C@@H](CCC(N)=O)C(=O)N[C@H](C(N)=O)C(C)C)[C@@H](C)CC)[C@@H](C)O)[C@@H](C)CC)[C@@H](C)CC)C(C)C)C(C)C [compound 177] (H-[NMeI]VLSLD[dV]PIKLK([γGlu-C14 diacid])KILLEQEKQK[Aib]QREQAETN[Aib]QILAQV-NH2)	0.86	10	> 250
CCC(=O)N[C@H](C(=O)N[C@@H](CC(C)C)C(=O)N[C@@H](CO)C(=O)N[C@@H](CC(C)C)C(=O)N[C@@H](CC(=O)O)C(=O)N[C@H](C(=O)N1CCC[C@H]1C(=O)N[C@H](C(=O)N[C@@H](CCCCN)C(=O)N[C@@H](CC(C)C)C(=O)N[C@@H](CCCCNC(=O)COCCOCCNC(=O)COCCOCCNC(=O)CC[C@H](NC(=O)CCCCCCCCCCCCCCCCC(=O)O)C(=O)O)C(=O)N[C@@H](CCCCN)C(=O)N[C@H](C(=O)N[C@@H](CC(C)C)C(=O)N[C@@H](CC(C)C)C(=O)N[C@@H](CCC(=O)O)C(=O)N[C@@H](CCC(N)=O)C(=O)N[C@@H](CCC(=O)O)C(=O)N[C@@H](CCCCN)C(=O)N[C@@H](CCC(N)=O)C(=O)N[C@@H](CCCCN)C(=O)N[C@@H](CCCCN)C(=O)N[C@@H](CCC(N)=O)C(=O)N[C@@H](CCCNC(=N)N)C(=O)N[C@@H](CCC(=O)O)C(=O)N[C@@H](CCC(N)=O)C(=O)N[C@@H](C)C(=O)N[C@@H](CCC(=O)O)C(=O)N[C@H](C(=O)N[C@@H](CC(N)=O)C(=O)N[C@@H](CCCCN)C(=O)N[C@@H](CCC(N)=O)C(=O)N[C@H](C(=O)N[C@@H](CC(C)C)C(=O)N[C@@H](C)C(=O)N[C@@H](CCC(N)=O)C(=O)N[C@H](C(N)=O)C(C)C)[C@@H](C)CC)[C@@H](C)O)[C@@H](C)CC)[C@@H](C)CC)C(C)C)C(C)C [compound 94] (Propionyl-VLSLDVPIKLK([AEEA-AEEA-γGlu-C18 diacid])KILLEQEKQKKQREQAETNKQILAQV-NH2)	1.48	0	> 250
CC[C@H](C)[C@H](NC)C(=O)N[C@H](C(=O)N[C@@H](CC(C)C)C(=O)N[C@@H](CO)C(=O)N[C@@H](CC(C)C)C(=O)N[C@@H](CC(=O)O)C(=O)N[C@@H](C(=O)N1CCC[C@H]1C(=O)N[C@H](C(=O)N[C@@H](CCCCN)C(=O)N[C@@H](CC(C)C)C(=O)N[C@@H](CCCCNC(=O)CC[C@H](NC(=O)CCCCCCCCCCCCCCCCC(=O)O)C(=O)O)C(=O)N[C@@H](CCC(N)=O)C(=O)N[C@H](C(=O)N[C@@H](CC(C)C)C(=O)N[C@@H](CC(C)C)C(=O)N[C@@H](CCCCN)C(=O)N[C@@H](CCC(N)=O)C(=O)N[C@@H](CCC(=O)O)C(=O)N[C@@H](CCCNC(=N)N)C(=O)N[C@@H](CCC(N)=O)C(=O)N[C@@H](CCCCN)C(=O)N[C@@H](CCCCN)C(=O)N[C@@H](CCC(N)=O)C(=O)N[C@@H](CCCNC(=N)N)C(=O)N[C@@H](CCC(=O)O)C(=O)N[C@@H](CCC(N)=O)C(=O)N[C@@H](C)C(=O)N[C@@H](CCC(=O)O)C(=O)N[C@@H](CCCCN)C(=O)N[C@@H](CC(N)=O)C(=O)NC(C)(C)C(=O)N[C@@H](CCC(N)=O)C(=O)N[C@H](C(=O)N[C@@H](CC(C)C)C(=O)N[C@@H](CCC(=O)O)C(=O)N[C@@H](CCC(N)=O)C(=O)N[C@H](C(N)=O)C(C)C)[C@@H](C)CC)[C@@H](C)CC)[C@@H](C)CC)C(C)C)C(C)C [compound 23] (H-[NMeI]VLSLD[dV]PIKLK([γGlu-C18 diacid])QILLKQERQKKQREQAEKN[Aib]QILEQV-NH2)	0.33	35	> 250
